PubChem BioAssay (NCI)
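GI50 = concentration required for 50% inhibition of growth. TGI: total growth inhibition.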

Tests used:
Assay in all cases: NCI tumour cell line growth inhibition, 384-well format
HCC-2998 colon = tested on: HCC-2998 colon
NCI-H23 lung = tested on: NCI-H23 lung
RXF 393 renal = tested on: RXF 393 renal
HOP-92 NSCLC = tested on: HOP-92 NSCLC
HT29 colon = tested on: HT29 colon
HCT-15 colon = tested on: HCT-15 colon
SW-620 colon = tested on: SW-620 colon
T-47D breast = tested on: T-47D breast
SK-MEL-5 melanoma = tested on: SK-MEL-5 melanoma
SNB-75 CNS = tested on: SNB-75 CNS
NCI-H322M lung = tested on: NCI-H322M lung
BT-549 breast = tested on: BT-549 breast
SF-268 CNS = tested on: SF-268 CNS
MOLT-4 leukemia = tested on: MOLT-4 leukemia
SR leukemia = tested on: SR leukemia
A549 NSCLC = tested on: A549 NSCLC
IGROV1 ovarian = tested on: IGROV1 ovarian
PC-3 prostate = tested on: PC-3 prostate
NCI-H460 NSCLC = tested on: NCI-H460 NSCLC
SF-295 CNS = tested on: SF-295 CNS
OVCAR-5 ovarian = tested on: OVCAR-5 ovarian
SNB-19 CNS = tested on: SNB-19 CNS
CCRF-CEM leukemia = tested on: CCRF-CEM leukemia
NCI-H522 lung = tested on: NCI-H522 lung
HCT-116 colon = tested on: HCT-116 colon
TK-10 renal = tested on: TK-10 renal
HS 578T breast = tested on: HS 578T breast
HOP-62 NSCLC = tested on: HOP-62 NSCLC
786-0 renal = tested on: 786-0 renal
OVCAR-8 ovarian = tested on: OVCAR-8 ovarian
EKVX NSCLC = tested on: EKVX NSCLC
COLO 205 colon = tested on: COLO 205 colon
HL-60(TB) leukemia = tested on: HL-60(TB) leukemia
K-562 leukemia = tested on: K-562 leukemia
NCI/ADR-RES ovarian = tested on: NCI/ADR-RES ovarian
UACC-257 melanoma = tested on: UACC-257 melanoma
SK-OV-3 ovarian = tested on: SK-OV-3 ovarian
NCI-H226 lung = tested on: NCI-H226 lung
MCF7 breast = tested on: MCF7 breast
SN12C renal = tested on: SN12C renal
M14 melanoma = tested on: M14 melanoma
OVCAR-3 ovarian = tested on: OVCAR-3 ovarian
A498 renal = tested on: A498 renal
SK-MEL-28 melanoma = tested on: SK-MEL-28 melanoma
U251 glioblastoma = tested on: U251 glioblastoma
DU-145 prostate = tested on: DU-145 prostate
MDA-MB-231 breast = tested on: MDA-MB-231 breast
KM12 colon = tested on: KM12 colon
LOX IMVI melanoma = tested on: LOX IMVI melanoma
MALME-3M melanoma = tested on: MALME-3M melanoma
MDA-MB-435 melanoma = tested on: MDA-MB-435 melanoma
ACHN renal = tested on: ACHN renal
UO-31 renal = tested on: UO-31 renal
SF-539 CNS = tested on: SF-539 CNS
RPMI-8226 leukemia = tested on: RPMI-8226 leukemia
MDA-MB-468 breast = tested on: MDA-MB-468 breast
OVCAR-4 ovarian = tested on: OVCAR-4 ovarian
CAKI-1 renal = tested on: CAKI-1 renal

Question: Which GI50 (HCC-2998 colon) does the source give for `Nc1ccccc1NC(=O)c1ccc(CNC(=O)OCc2cccnc2)cc1` here?
Answer: 558 nM

Question: What about the TGI (HCC-2998 colon) of the same molecule?
Answer: 1940 nM

Question: And the GI50 (NCI-H23 lung)?
Answer: 790 nM

Question: What about the TGI (NCI-H23 lung) of the same molecule?
Answer: 4450 nM

Question: And the GI50 (RXF 393 renal)?
Answer: 239 nM

Question: And the TGI (RXF 393 renal)?
Answer: 918 nM

Question: And the GI50 (HOP-92 NSCLC)?
Answer: 256 nM

Question: And the TGI (HOP-92 NSCLC)?
Answer: 920 nM

Question: And the GI50 (HT29 colon)?
Answer: 563 nM

Question: And the TGI (HT29 colon)?
Answer: 2560 nM

Question: What about the GI50 (HCT-15 colon) of the same molecule?
Answer: 1440 nM

Question: And the TGI (HCT-15 colon)?
Answer: 9090 nM

Question: What about the GI50 (SW-620 colon) of the same molecule?
Answer: 521 nM

Question: And the TGI (SW-620 colon)?
Answer: 2160 nM

Question: And the GI50 (T-47D breast)?
Answer: 487 nM

Question: And the TGI (T-47D breast)?
Answer: 1220 nM

Question: What about the GI50 (SK-MEL-5 melanoma) of the same molecule?
Answer: 243 nM

Question: What about the TGI (SK-MEL-5 melanoma) of the same molecule?
Answer: 457 nM

Question: What about the GI50 (SNB-75 CNS) of the same molecule?
Answer: 1130 nM

Question: What about the TGI (SNB-75 CNS) of the same molecule?
Answer: 13700 nM

Question: What about the GI50 (NCI-H322M lung) of the same molecule?
Answer: 1550 nM

Question: What about the TGI (NCI-H322M lung) of the same molecule?
Answer: 6500 nM

Question: What about the GI50 (BT-549 breast) of the same molecule?
Answer: 467 nM

Question: And the TGI (BT-549 breast)?
Answer: 3320 nM

Question: What about the GI50 (SF-268 CNS) of the same molecule?
Answer: 220 nM

Question: And the TGI (SF-268 CNS)?
Answer: 719 nM

Question: What about the GI50 (MOLT-4 leukemia) of the same molecule?
Answer: 164 nM

Question: And the TGI (MOLT-4 leukemia)?
Answer: 303 nM

Question: What about the GI50 (SR leukemia) of the same molecule?
Answer: 31 nM

Question: What about the TGI (SR leukemia) of the same molecule?
Answer: 105 nM

Question: And the GI50 (A549 NSCLC)?
Answer: 1910 nM

Question: What about the TGI (A549 NSCLC) of the same molecule?
Answer: 14700 nM

Question: And the GI50 (IGROV1 ovarian)?
Answer: 363 nM

Question: And the TGI (IGROV1 ovarian)?
Answer: 1720 nM

Question: And the GI50 (PC-3 prostate)?
Answer: 1040 nM

Question: What about the TGI (PC-3 prostate) of the same molecule?
Answer: 16400 nM

Question: What about the GI50 (NCI-H460 NSCLC) of the same molecule?
Answer: 352 nM

Question: What about the TGI (NCI-H460 NSCLC) of the same molecule?
Answer: 7660 nM

Question: What about the GI50 (SF-295 CNS) of the same molecule?
Answer: 878 nM

Question: And the TGI (SF-295 CNS)?
Answer: 2110 nM

Question: And the GI50 (OVCAR-5 ovarian)?
Answer: 727 nM

Question: What about the TGI (OVCAR-5 ovarian) of the same molecule?
Answer: 5000 nM

Question: And the GI50 (SNB-19 CNS)?
Answer: 1780 nM

Question: What about the TGI (SNB-19 CNS) of the same molecule?
Answer: 6060 nM

Question: And the GI50 (CCRF-CEM leukemia)?
Answer: 190 nM

Question: What about the TGI (CCRF-CEM leukemia) of the same molecule?
Answer: 368 nM

Question: What about the GI50 (NCI-H522 lung) of the same molecule?
Answer: 673 nM

Question: And the TGI (NCI-H522 lung)?
Answer: 2680 nM

Question: What about the GI50 (HCT-116 colon) of the same molecule?
Answer: 295 nM

Question: And the TGI (HCT-116 colon)?
Answer: 1190 nM

Question: And the GI50 (TK-10 renal)?
Answer: 441 nM

Question: And the TGI (TK-10 renal)?
Answer: 3820 nM

Question: What about the GI50 (HS 578T breast) of the same molecule?
Answer: 271 nM

Question: And the TGI (HS 578T breast)?
Answer: 1070 nM

Question: What about the GI50 (HOP-62 NSCLC) of the same molecule?
Answer: 785 nM

Question: And the TGI (HOP-62 NSCLC)?
Answer: 3620 nM

Question: And the GI50 ([…]-0 renal)?
Answer: 2100 nM

Question: And the TGI (786-0 renal)?
Answer: 14900 nM

Question: And the GI50 (OVCAR-8 ovarian)?
Answer: 368 nM

Question: And the TGI (OVCAR-8 ovarian)?
Answer: 2090 nM

Question: And the GI50 (EKVX NSCLC)?
Answer: 2860 nM

Question: What about the TGI (EKVX NSCLC) of the same molecule?
Answer: 90500 nM

Question: What about the GI50 (COLO 205 colon) of the same molecule?
Answer: 775 nM

Question: What about the TGI (COLO 205 colon) of the same molecule?
Answer: 2420 nM

Question: And the GI50 (HL-60(TB) leukemia)?
Answer: 206 nM

Question: And the TGI (HL-60(TB) leukemia)?
Answer: 350 nM

Question: And the GI50 (K-562 leukemia)?
Answer: 185 nM

Question: What about the TGI (K-562 leukemia) of the same molecule?
Answer: 1160 nM

Question: What about the GI50 (NCI/ADR-RES ovarian) of the same molecule?
Answer: 1460 nM

Question: What about the TGI (NCI/ADR-RES ovarian) of the same molecule?
Answer: 4020 nM

Question: And the GI50 (UACC-257 melanoma)?
Answer: 375 nM

Question: And the TGI (UACC-257 melanoma)?
Answer: 1380 nM

Question: What about the GI50 (SK-OV-3 ovarian) of the same molecule?
Answer: 1500 nM

Question: What about the TGI (SK-OV-3 ovarian) of the same molecule?
Answer: 5100 nM

Question: What about the GI50 (NCI-H226 lung) of the same molecule?
Answer: 1070 nM

Question: What about the TGI (NCI-H226 lung) of the same molecule?
Answer: 4880 nM

Question: And the GI50 (MCF7 breast)?
Answer: 404 nM

Question: What about the TGI (MCF7 breast) of the same molecule?
Answer: 1940 nM

Question: What about the GI50 (SN12C renal) of the same molecule?
Answer: 1600 nM

Question: What about the TGI (SN12C renal) of the same molecule?
Answer: 3280 nM

Question: And the GI50 (M14 melanoma)?
Answer: 658 nM

Question: What about the TGI (M14 melanoma) of the same molecule?
Answer: 5660 nM

Question: What about the GI50 (OVCAR-3 ovarian) of the same molecule?
Answer: 936 nM

Question: And the TGI (OVCAR-3 ovarian)?
Answer: 3130 nM

Question: And the GI50 (A498 renal)?
Answer: 399 nM

Question: And the TGI (A498 renal)?
Answer: 1860 nM

Question: And the GI50 (SK-MEL-28 melanoma)?
Answer: 234 nM

Question: What about the TGI (SK-MEL-28 melanoma) of the same molecule?
Answer: 493 nM

Question: What about the GI50 (U251 glioblastoma) of the same molecule?
Answer: 607 nM

Question: What about the TGI (U251 glioblastoma) of the same molecule?
Answer: 1910 nM

Question: What about the GI50 (DU-145 prostate) of the same molecule?
Answer: 338 nM

Question: And the TGI (DU-145 prostate)?
Answer: 6410 nM

Question: What about the GI50 (MDA-MB-231 breast) of the same molecule?
Answer: 511 nM

Question: What about the TGI (MDA-MB-231 breast) of the same molecule?
Answer: 2860 nM

Question: What about the GI50 (KM12 colon) of the same molecule?
Answer: 2240 nM

Question: What about the TGI (KM12 colon) of the same molecule?
Answer: 19900 nM

Question: What about the GI50 (LOX IMVI melanoma) of the same molecule?
Answer: 357 nM

Question: What about the TGI (LOX IMVI melanoma) of the same molecule?
Answer: 1050 nM

Question: And the GI50 (MALME-3M melanoma)?
Answer: 109 nM

Question: What about the TGI (MALME-3M melanoma) of the same molecule?
Answer: 255 nM

Question: What about the GI50 (MDA-MB-435 melanoma) of the same molecule?
Answer: 652 nM

Question: And the TGI (MDA-MB-435 melanoma)?
Answer: 2400 nM

Question: And the GI50 (ACHN renal)?
Answer: 600 nM

Question: And the TGI (ACHN renal)?
Answer: 2620 nM

Question: And the GI50 (UO-31 renal)?
Answer: 1660 nM

Question: And the TGI (UO-31 renal)?
Answer: 13100 nM

Question: What about the GI50 (SF-539 CNS) of the same molecule?
Answer: 1630 nM

Question: What about the TGI (SF-539 CNS) of the same molecule?
Answer: 14800 nM

Question: What about the GI50 (RPMI-8226 leukemia) of the same molecule?
Answer: 20.5 nM

Question: What about the TGI (RPMI-8226 leukemia) of the same molecule?
Answer: 45.3 nM

Question: And the GI50 (MDA-MB-468 breast)?
Answer: 244 nM

Question: What about the TGI (MDA-MB-468 breast) of the same molecule?
Answer: 713 nM

Question: And the GI50 (OVCAR-4 ovarian)?
Answer: 1330 nM

Question: What about the TGI (OVCAR-4 ovarian) of the same molecule?
Answer: 3630 nM

Question: What about the GI50 (CAKI-1 renal) of the same molecule?
Answer: 918 nM

Question: And the TGI (CAKI-1 renal)?
Answer: 2950 nM
